In article PMC8623273, “Novel N7-Arylmethyl Substituted Dinucleotide mRNA 5′ cap Analogs: Synthesis and Evaluation as Modulators of Translation” (Pharmaceutics, 2021):

Test system: A549 cells
Assay: translational efficiency of mRNAs capped with the analogs in A549 cells (Gaussia luciferase)
Format: cell-based
Settings: mRNA capped with the analog; Gaussia luciferase activity in A549 cells 72 h post-transfection; normalized to m^7GpppG RNA
Description: Finally, we tested the properties of arylmethyl cap analogs as reagents for co-transcriptional mRNA capping. […] Here, we sought to evaluate the translational properties of mRNAs capped with N7-arylmethyl analogs in cultured cells. To that end, the translation properties of transcripts capped with selected analogs were assessed in A549 cells. In vitro transcribed mRNAs encoding Gaussia luciferase, capped with compounds 1a–1k, 1m–1n, and 1p–1r or with reference analogues m^7GpppG and ARCA (m^7GmpppG), were purified via RP HPLC, transfected into A549 cells, and the protein activity (luminescence) was measured using a reporter assay at 72 h post-transfection. The total amount of protein produced over 72 h from each capped RNA was normalized to m^7GpppG RNA (Figure 6 and Figure S4). […] Namely, replacing the N7-methyl group with a benzyl moiety (1a) increased protein production over fivefold in A549 cells compared to m^7GpppG-capped mRNA (Figure 6).
The influence of N7-arylmethylated dinucleotide 5′ cap analogues on the translational properties of HPLC-purified IVT mRNA is shown in Figure S4, Measurements are total protein produced over 72 h by A549 cells transfected with capped mRNAs. Each plot in Figure S4 represents a single experiment consisting of three independent transfections of the cells at the same passage. Bars show mean value normalized to […] ± SD. In the main manuscript, all nine data points from three different cell passages were combined to present cumulative protein expression.

## m^7GmpppG [reference compound]
  Rel. Protein Expression: 8.6 ± 1.0
